# From the OPERA property sets (Mansouri et al. 2018)
# Settings: for log10 BCF / log10 biotransformation half-life (days): fish
SMILES,boiling point [°C],melting point [°C],also measured
CCCCCCCCCCCCCC=O,260,20.5,
O=[N+]([O-])c1ccc(S(=O)(=O)O)cc1,,,ready biodegradability: not readily biodegradable
CCCC(=O)c1c(C)cc(C)c(C2CC(=O)C(C(CC)=NOCC)=C(O)C2)c1C (stereo not drawn),,80.8,log10 vapour pressure (mmHg): -8.12
O=C(O)CSCC(=O)O,,129,
CCCCCCCCCCCCCCCCCCC1CCCCC1,409,41.6,
CCOP(=S)(OCC)Oc1ccc2c3c(c(=O)oc2c1)CCCC3,,88.2,
c1ccc2cc3c(ccc4cc5ccccc5cc43)cc2c1,,257,
Cc1ccc(C(=O)c2ccccc2C(=O)O)cc1,,146,
c1ccc2nc3ccc4ccccc4c3cc2c1,,,log10 Koc (L/kg): 4.39; log10 BCF: 2.02
FC(F)(Br)C(F)(F)C(F)(F)C(F)(F)C(F)(F)C(F)(F)Br,142,,
CCCCCCO,158,-44.6,log10 Henry constant (atm·m³/mol): -4.77; log10 vapour pressure (mmHg): -0.0325; ready biodegradability: readily biodegradable
Oc1cccc(F)c1,178,13.7,
O=C1NCNC1(c1ccccc1)c1ccccc1,,183,
CCC(C)Nc1ccc(NC(C)CC)cc1 (stereo not drawn),,18,
O[C@H]1CC[C@H](O)CC1,,143,
CC1CS1 (stereo not drawn),72.5,-91,
CC(C)NCC(O)c1ccc2ccccc2c1 (stereo not drawn),,108,
CCCCCCCCCCCCCCCCCCN=C=O,300,20,ready biodegradability: not readily biodegradable
O=C(O)c1cc(O)ccc1O,,200,
Cc1cc(OC(=O)N(C)C)nn1C(=O)N(C)C,,69.5,log10 vapour pressure (mmHg): -4.01
CC(C)(C)c1cc(-c2ccccc2)cc(C(C)(C)C)c1O,,,ready biodegradability: not readily biodegradable; log10 BCF: 3.78; log10 biotransformation half-life (days): 1.16
Fc1cccnc1,108,,
Cc1ccc(C#N)cc1,217,29.5,log10 vapour pressure (mmHg): -0.504
CCCCCCC[C@H](C)O,194,-35.5,log10 vapour pressure (mmHg): -1.17

SMILES,boiling point [°C],melting point [°C],also measured
CCCCCCCC/C=C\CCCCCCCCOC(=O)CCCCC(=O)OCCCCCCCC/C=C\CCCCCCCC,,,ready biodegradability: readily biodegradable
Cl[C@@H]1CCCC[C@H]1Cl,200,-1.5,
COC(=O)c1ccc(Cl)c([N+](=O)[O-])c1,,83,
Clc1ccccc1C(Cl)(Cl)Cl,264,29.4,log10 vapour pressure (mmHg): -1.3
C=CC(=O)O,141,13.5,log10 vapour pressure (mmHg): 0.599; ready biodegradability: readily biodegradable
C(=NC1CCCCC1)=NC1CCCCC1,,34.5,ready biodegradability: not readily biodegradable
Cc1cc(O)ccc1Br,,63.5,
O=C(O)CCCc1ccccc1,290,52,
Nc1cccc2c1Cc1ccccc1-2,,126,
Cc1ccc([N+](=O)[O-])c(O)c1,,53,log10 Henry constant (atm·m³/mol): -4.89; log10 vapour pressure (mmHg): -1.7; ready biodegradability: not readily biodegradable
CC1=CC(=O)C(C(C)C)=CC1=O,232,45.5,
C=CC(Cl)Cl,84.4,,log10 vapour pressure (mmHg): 1.85
CC(=O)CCC(C)=O,194,-5.5,
CCCSSCCC,194,-85.6,log10 vapour pressure (mmHg): -0.291
Nc1ccccc1S,234,26,
CC(C)=CCCC(C)CCO (racemic),224,,
C#CC=C,5.1,,log10 vapour pressure (mmHg): 3.13
CN1Cc2c(N)cccc2C(c2ccccc2)C1 (stereo not drawn),,180,
CC(=O)NC12CC3CC(CC(C3)C1)C2,,148,
COc1ccc(CC=O)cc1,256,,
CC(C)OC(=O)Cl,105,,log10 vapour pressure (mmHg): 1.57; ready biodegradability: not readily biodegradable
CN1[C@@H]2CC[C@H]1C[C@@H](O)C2,237,86.5,
N#CCC(=O)c1ccccc1,,80.5,
C=C1CC=C(C(C)C)CC1,174,,

SMILES,boiling point [°C],melting point [°C],also measured
C1CCNC1,86.5,-57.8,log10 Henry constant (atm·m³/mol): -5.62; log10 Koa: 4.07; log10 vapour pressure (mmHg): 1.8
COc1ccc(CO)cc1OC,298,,
CCNc1nc(NC(C)CC)nc(OC)n1 (stereo not drawn),,87,log10 Koc (L/kg): 2.78; log10 vapour pressure (mmHg): -5.14
C=CC(C)CC (stereo not drawn),54.2,-153,log10 vapour pressure (mmHg): 2.43
CCC(CC)C(C)C,116,-115,log10 biodegradation half-life (days): 0.778; log10 vapour pressure (mmHg): 1.38
CCC(C)CCC(C)(O)CC (stereo not drawn),202,-67.5,
CC(C)Cc1ccc(CC(=O)O)cc1,,86,
N[C@@H](Cc1cc(I)c(O)c(I)c1)C(=O)O,,213,
CC(c1ccccc1)c1ccc(O)c(C(C)c2ccccc2)c1C(C)c1ccccc1 (stereo not drawn),,,ready biodegradability: not readily biodegradable
Cc1cccc(Br)c1,184,-39.8,log10 vapour pressure (mmHg): 0.185
CCCCCC(=O)Nc1ccccc1,,95,
Clc1cc2oc3c(Cl)c(Cl)ccc3c2cc1Cl,,195,log10 vapour pressure (mmHg): -7.68; log10 BCF: 2.72
CNC(=O)Oc1ccc2c(c1)[C@]1(C)CCO[C@@H]1N2C,,124,
CO[SiH](OC)OC,81,-115,log10 vapour pressure (mmHg): 1.88
CC[C@H]1C[N@@]2CC[C@H]1C[C@H]2[C@H](O)c1ccnc2ccc(OC)cc12,,170,
COc1c(C)c2c(c(O)c1C/C=C(\C)CCC(=O)O)C(=O)OC2,,141,
O=C(CCl)CCl,173,45,log10 vapour pressure (mmHg): -0.202
Clc1ccc(Cc2ccc(Cl)cc2)cc1,,55.5,
CC(=O)OC1CCCCC1,173,-65,log10 vapour pressure (mmHg): 1.03
CC(C)C(O)C(C)(C)C (stereo not drawn),150,-13,
CCNCCN(C)C,134,,
FC(F)(F)SSC(F)(F)F,34.6,,
COC(=O)C(C)Oc1ccc(Oc2ccc(Cl)cc2Cl)cc1 (stereo not drawn),,40,log10 Koc (L/kg): 4.2; log10 vapour pressure (mmHg): -5.46; ready biodegradability: readily biodegradable
C[N+]1(C)CCCCC1.[Cl-],,223,

SMILES,boiling point [°C],melting point [°C],also measured
CCN1CCCC1CNC(=O)c1cc(S(=O)(=O)CC)c(N)cc1OC (stereo not drawn),,126,
CC(=O)Oc1cc(C(C)C)ccc1C,246,,
COC(=O)Cn1ccnc1[N+](=O)[O-],,96,
Cc1ccc(C)c(C(=O)O)c1,,132,
CC1=CCC(=O)O1,,18,
CCCCCCCCCCC#N,253,,
CC1(C)C(O)=CC(=O)C=C1O,,214,
O=C(Oc1ccccc1C(=O)O)c1ccccc1O,,147,
"CC1(C)[C@H](C(=O)O[C@H](C#N)c2cccc(Oc3ccccc3)c2)[C@@H]1/C=C(\Cl)C(F)(F)F (single isomer, unassigned)",,49.2,
NS(=O)(=O)c1ccc(SCCCCO)s1,,48.5,
c1ccc2cc3cc4cc5ccccc5cc4cc3cc2c1,,257,ready biodegradability: not readily biodegradable
CCCCCCCCCCCCCC(=O)OCc1ccccc1,,20.5,
C1=CC2C=CC1C2,89.5,-19.1,
CCCC(C)(Cl)Cl,,128,
COc1cc(C=CC(=O)O)ccc1O,,,ready biodegradability: readily biodegradable
CC(C)CCCBr,145,,
CCSCC,92.1,-104,log10 Henry constant (atm·m³/mol): -2.77; log10 vapour pressure (mmHg): 1.78
CCN(CC)C(N)=O,,75,
Cc1c(Cl)c(=O)oc2cc(OP(=O)(OCCCl)OCCCl)ccc12,,91,
Oc1ccc(Cl)c(Cl)c1,253,68,log10 Koc (L/kg): 3.09; ready biodegradability: not readily biodegradable; log10 BCF: 1.69; log10 biotransformation half-life (days): -0.92
C=CC(C)(O)CCC=C(C)C (stereo not drawn),198,,log10 Henry constant (atm·m³/mol): -4.67; log10 vapour pressure (mmHg): -0.796; ready biodegradability: readily biodegradable
CCCCCCCS,177,-43,log10 vapour pressure (mmHg): 0.116
CC(C)[C@@H](Br)C(=O)O,230,44,
Cc1ccc(C)c2ccccc12,268,7.6,log10 biodegradation half-life (days): 1.18; log10 vapour pressure (mmHg): -1.67

SMILES,boiling point [°C],melting point [°C],also measured
COc1cc(C(=O)OCCCN(C)CCN(C)CCCOC(=O)c2cc(OC)c(OC)c(OC)c2)cc(OC)c1OC,,76,
CCOC(=O)c1cccc(Br)c1,261,,
c1ccoc1,31.5,-85.6,log10 vapour pressure (mmHg): 2.78; ready biodegradability: not readily biodegradable; log10 BCF: 0.7; log10 biotransformation half-life (days): -0.84
Cc1cc(C)cc(N)c1,220,9.8,ready biodegradability: not readily biodegradable
Brc1cc(Br)c(Br)c(Oc2ccc(Br)c(Br)c2Br)c1,,,ready biodegradability: not readily biodegradable
O=C(O)CCOc1ccccc1,240,97.5,
COC(=O)c1ccccc1N,256,24.5,log10 vapour pressure (mmHg): -1.57
Cc1ccc(O)c(O)c1,251,65,ready biodegradability: not readily biodegradable
Ic1ccccc1,188,-31.3,log10 Koc (L/kg): 3.1; log10 vapour pressure (mmHg): 0.0253
Oc1ccc2cc(Cl)ccc2c1,,116,
C=C1C[C@@]23CC[C@H]4[C@@](C)(CCC[C@@]4(C)C(=O)O[C@@H]4O[C@H](CO)[C@@H](O)[C@H](O)[C@H]4O)[C@@H]2CC[C@]1(O[C@@H]1O[C@H](CO)[C@@H](O)[C@H](O)[C@H]1O[C@@H]1O[C@H](CO)[C@@H](O)[C@H](O)[C@H]1O)C3,,198,
Cc1ccc2ccc3cccc4ccc1c2c34,,,log10 biodegradation half-life (days): 1.96; log10 biotransformation half-life (days): 0.11
COc1ccc2ccc(=O)oc2c1CC=C(C)C,,83.5,
CCOCCc1ccc(OCCN=c2[nH]cnc(CC)c2Cl)c(C)c1C,,70,
CCOP(=S)(OCC)SCSP(=S)(OCC)OCC,,-13,log10 Koc (L/kg): 4.06; log10 vapour pressure (mmHg): -5.82
O=CC=CC=Cc1ccccc1,,42.5,
CC(Cl)C(=O)CCl (stereo not drawn),166,,
Nc1c(Cl)cc(Cl)cc1Br,273,83.5,
Cc1cc(C)[nH]n1,218,108,
CCCCCCCCCCCCCCC=O,,24.5,
Nc1ccc(Oc2ccccc2)cc1,,83,
Cc1ccc(NC(=O)N(C)C)cc1,,,log10 Koc (L/kg): 1.51
